Laboratory results reported in PubChem BioAssay AID1996.
≈ marks a conversion by molar mass, not a printed value.

details: buffer; pH 7.4; 200.0 µM

Point of comparison: `O=C(CSc1ncnc2sc3c(c12)CCCC3)NC1CCS(=O)(=O)C1` (centres undefined), solubility kinetic 18.6 µg/mL (≈ 46.8 µM). Against it:
- O=C1C(C=Nc2ccc(F)cc2)=C(O)c2ccccc21 — lower, < 0.6 µg/mL
- CCOCCCNC(=O)c1ccc(C2SCC(=O)N2Cc2ccccc2)cc1 (centres undefined) — higher, > 59.8 µg/mL
- Cc1ccc(C)c(OCC(=O)NC2CCCCCC2)c1 — 4.9-fold lower, 3.8 µg/mL (≈ 13.8 µM)
- O=C1CSC(=S)N1c1cccc(O)c1 — 1.6-fold higher, 29 µg/mL (≈ 129 µM)
- COc1ccc(NC(=O)N2CCCCCC2)cc1OC — higher, > 41.8 µg/mL
- CCc1cc2c(=O)n(-c3ccccc3)c(SCC(=O)O)nc2s1 — higher, > 52 µg/mL
- O=C(Nc1ccc2nc3n(c(=O)c2c1)CCCC3)c1ccccc1F — 2.6-fold higher, 48 µg/mL (≈ 142 µM)
- Cn1c(SCc2ccc(Br)cc2)nc2c(c1=O)SCC2 — lower, < 0.4 µg/mL
- CC1CCC(NC(=S)NCCN(C)C)CC1 (centres undefined) — within 1.5-fold, 25.6 µg/mL (≈ 105 µM)
- COc1ccc(CN(C)CC(=O)N2CCc3ccccc3C2)cc1 — higher, > 48.7 µg/mL
- Cc1onc(-c2c(F)cccc2Cl)c1C(=O)Nc1cccc(S(=O)(=O)N2CCOCC2)c1 — 2-fold higher, 37.8 µg/mL (≈ 78.8 µM)
- CC(C)[C@H](NC(=O)NCCC1=CCCCC1)C(=O)O — higher, > 40.3 µg/mL
- COC1Cc2ccccc2N(C(N)=O)c2ccccc21 (centres undefined) — higher, > 40.2 µg/mL
- COc1cccc(N2CCN(c3nc(C)cc(=O)[nH]3)CC2)c1 — 2.4-fold higher, 44.6 µg/mL (≈ 148 µM)
- Cc1cc(NC(=O)c2ccc(-c3ccccc3F)o2)no1 — 31-fold lower, 0.6 µg/mL (≈ 2.1 µM)
- CCOc1ccc(C(=O)CCC(=O)Nc2ccc(C)cn2)cc1 — 3.3-fold lower, 5.6 µg/mL (≈ 17.9 µM)
- CC(C)CNC(=S)N1CCC(NC(=O)c2ccco2)CC1 — 2.3-fold higher, 41.9 µg/mL (≈ 135 µM)
- CCOc1ccc(Nc2nc(N)c([N+](=O)[O-])c(N3CCN(C)CC3)n2)cc1 — 2.8-fold higher, 51.9 µg/mL (≈ 139 µM)
- OC(CN1CCCCC1)c1c[nH]c2ccccc12 (centres undefined) — higher, > 36.7 µg/mL
- c1ccc(CN2CCOCCOCCOCCOCC2)cc1 — 2.3-fold higher, 43.2 µg/mL (≈ 140 µM)
- CCCC1(C(=O)OCC)NC(c2ccco2)C2C(=O)N(C)C(=O)C21 (centres undefined) — 2.5-fold higher, 46.2 µg/mL (≈ 138 µM)
- CCCCCCC1CC(=O)NC(=S)N1 (centres undefined) — 1.5-fold higher, 28.4 µg/mL (≈ 133 µM)
- O=C(Cn1ccc(=O)[nH]c1=O)NCCO — higher, > 32 µg/mL
- CCOC(=O)C1CCN(C(=O)c2ccc(OC3CCN(C(=O)COC)CC3)cc2)CC1 — 2.4-fold higher, 45 µg/mL (≈ 104 µM)
- Nc1nccnc1C(=O)OCC(=O)C12CC3CC(CC(C3)C1)C2 — 6.4-fold lower, 2.9 µg/mL (≈ 9.2 µM)
- COc1ccc(C(=O)Nc2cc([N+](=O)[O-])ccc2N2CCCC2)cc1 — 7.2-fold lower, 2.6 µg/mL (≈ 7.62 µM)
- COC(=O)C(Cc1ccc(O)cc1)N1Cc2ccccc2C1=O (centres undefined) — higher, > 46.7 µg/mL
- COc1cc(S(=O)(=O)N2CCOCC2)cc(C(=O)NCC(c2cccs2)N2CCOCC2)c1OC (centres undefined) — 2.5-fold lower, 7.4 µg/mL (≈ 14.1 µM)
- COCC(=O)N1CCCC(CNS(=O)(=O)c2ccc(OC)cc2)C1 (centres undefined) — higher, > 53.5 µg/mL
- CSc1ncc(C(=O)Nc2cccc(Cl)c2)c(C)n1 — higher, > 44.1 µg/mL
- Cc1cc(C(=O)O)ccc1-n1c(C)cc(/C=C2\SC(=O)NC2=O)c1C — higher, > 53.5 µg/mL
- Cc1ccc(NC(=O)COc2ccc(N(C)C(=O)C(C)(C)C)cc2)cc1S(=O)(=O)N1CCCCC1 — 2.8-fold lower, 6.7 µg/mL (≈ 13.4 µM)
- C=CCc1c(C)[nH]c(=O)[nH]c1=O — higher, > 24.9 µg/mL
- O=[N+]([O-])c1cccc2c(N3CCOCC3)ccnc12 — higher, > 38.9 µg/mL
- O=C(c1ccc(-c2cccc(Cl)c2Cl)o1)N1CCOCC1 — 2.5-fold higher, 47.1 µg/mL (≈ 144 µM)
- CCC(=O)OCC(=O)Nc1ccc2c(c1)OCO2 — higher, > 37.7 µg/mL
- S=C(Nc1cccc(Cl)c1)Nc1ccc2c(c1)OCCO2 — 2.2-fold higher, 40.4 µg/mL (≈ 126 µM)
- Cc1ccc(C)c(N=Cc2c(O)c3ccccc3oc2=O)c1 — 12-fold lower, 1.6 µg/mL (≈ 5.45 µM)
- Fc1ccc(N=Cc2ccc[nH]2)cc1 — 1.7-fold lower, 11 µg/mL (≈ 58.4 µM)
- Oc1cccc(Nc2nc(-c3ccccc3)nc3ccccc23)c1 — 8.5-fold lower, 2.2 µg/mL (≈ 7.02 µM)
- CCc1cc2c(=O)n(-c3ccccc3)c(SCC(N)=O)nc2s1 — 6.6-fold lower, 2.8 µg/mL (≈ 8.11 µM)
- Cc1ccc(OCc2nc(C#N)c(N3CCCCC3)o2)cc1 — 3.8-fold lower, 4.9 µg/mL (≈ 16.5 µM)
- S=c1[nH]c(-c2ccccc2)cn1-c1ccccc1 — within 1.5-fold, 14.9 µg/mL (≈ 59 µM)
- Cc1cc(C)c2c(ccc3cccc[n+]32)c1.[O-][Cl+3]([O-])([O-])[O-] — higher, > 46.2 µg/mL
- COCCNC(=O)c1cc2c(=O)[nH]c3ccccc3c2s1 — 5.8-fold lower, 3.2 µg/mL (≈ 10.6 µM)
- NCC(=O)Nc1ccc(Br)cc1 — within 1.5-fold, 27.6 µg/mL (≈ 120 µM)
- COc1ccccc1N1CN(Cc2ccccc2)CNC1=S — higher, > 47 µg/mL
- COC(=O)/C(C#N)=C/N(C)C — higher, > 23.1 µg/mL
- CCOc1cccc2cc(C(=O)NCc3ccc(F)cc3)c(=N)oc12 — 27-fold lower, 0.7 µg/mL (≈ 2.06 µM)
- Cc1ccccc1CC(=O)NCCN1CCOCC1 — higher, > 39.4 µg/mL
- Cc1ccc(C2(C)NC(=O)N(CC(=O)N3CCN(S(=O)(=O)c4cccc([N+](=O)[O-])c4)CC3)C2=O)cc1 (centres undefined) — within 1.5-fold, 12.7 µg/mL (≈ 24.6 µM)
- COc1cccc(Nc2nc(N)c([N+](=O)[O-])c(NCc3ccco3)n2)c1 — 16-fold lower, 1.2 µg/mL (≈ 3.37 µM)
- C=CCn1c(C)c(C=C2C(=O)NC(=O)NC2=O)c2ccccc21 — higher, > 46.4 µg/mL
- CCOC(=O)C1=C(CC)Nc2ccccc2N=C1NC(=O)c1cc(S(=O)(=O)N2CCOCC2)ccc1C — 2.7-fold higher, 50.8 µg/mL (≈ 96.5 µM)
- CCc1ccc(N2CC(C(=O)Nc3ccc(F)cc3)CC2=O)cc1 (centres undefined) — 23-fold lower, 0.8 µg/mL (≈ 2.45 µM)
- COc1cccc(/C=C/C(=O)c2cccc([N+](=O)[O-])c2)c1 — 7.8-fold lower, 2.4 µg/mL (≈ 8.47 µM)
- Nc1ncc2[nH]cnc2n1 — higher, > 20.3 µg/mL
- O=C(NC1CCCN(CCc2ccccc2)C1)c1c[nH]c2ccccc12 (centres undefined) — 2.7-fold higher, 49.3 µg/mL (≈ 142 µM)
